Where two headings read alike, the source gives them in different places.
Legend:
[1] = tested on: T. gondii RH strain (RH-Tub-eYFP) tachyzoites; test: microbe, parasite or virus in culture; format: cell-based, Toxoplasma gondii; settings: for percent parasite growth at 2 µg/mL: Toxoplasma gondii
[2] = tested on: P. falciparum 3D7 parasites; test: P. falciparum growth inhibition assay, 1-cycle (72 h treatment), SYBR DNA staining (library screen at 2 μg/mL and dose-response); format: cell-based, Plasmodium falciparum; settings: for activity at 2 µg/mL: Plasmodium falciparum
[3] = tested on: P. falciparum 3D7 parasites; test: P. falciparum growth inhibition assay, 2-cycle (120 h treatment), delayed-death screen and dose-response; format: cell-based, Plasmodium falciparum; settings: for activity at 2 µg/mL: Plasmodium falciparum
[4] = T. gondii, 72 h, parasite screen at 2 μg/mL, % growth, replicate 1
[5] = T. gondii, 72 h, parasite screen at 2 μg/mL, % growth, replicate 2
[6] = P. falciparum 3D7, 72 h, parasite screen at 2 μg/mL, % growth, replicate 1
[7] = P. falciparum 3D7, 72 h, parasite screen at 2 μg/mL, % growth, replicate 2
[8] = P. falciparum 3D7, 120 h, parasite screen at 2 μg/mL, % growth, replicate 1
[9] = P. falciparum 3D7, 120 h, parasite screen at 2 μg/mL, % growth, replicate 2
[10] = library screen at 2 μg/mL, 72 h, % growth, replicate 1
[11] = library screen at 2 μg/mL, 72 h, % growth, replicate 2
[12] = library screen at 2 μg/mL, 120 h, % growth, replicate 1
[13] = library screen at 2 μg/mL, 120 h, % growth, replicate 2
[14] = 2 μg/mL, 72 h, active = ≥80 % growth inhibition
[15] = T. gondii, 72 h, screen at 2 μg/mL, replicate 1
[16] = T. gondii, 72 h, screen at 2 μg/mL, replicate 2
[17] = P. falciparum, 72 h, screen at 2 μg/mL, replicate 1
[18] = P. falciparum, 72 h, screen at 2 μg/mL, replicate 2
[19] = P. falciparum, 120 h, screen at 2 μg/mL, replicate 1
[20] = P. falciparum, 120 h, screen at 2 μg/mL, replicate 2

How did the Tg_72h_%Growth_Rep1 [1] turn out when `CCC[C@@H]1C[C@@H](C(=O)N[C@@H]([C@H]2O[C@H](SC)[C@H](OP(=O)(O)O)[C@@H](O)[C@H]2O)[C@H](C)Cl)N(C)C1` [Clindamycin 2-phosphate, reference compound] was run?
The Tg_72h_%Growth_Rep1 was 25.11%.

And the Tg_72h_%Growth_Rep2 [1]?
Its Tg_72h_%Growth_Rep2 is 20.67%.

What about the “1) Growth (%) at 72 h” value [2] of the same compound?
Its value is 67.91%.

And the Pf_72h_%Growth_Rep1 [2]?
Its Pf_72h_%Growth_Rep1 is 73.78%.

What about the Pf_72h_%Growth_Rep2 [2] of the same compound?
The Pf_72h_%Growth_Rep2 was 62.04%.

And the “2) Growth (%) at 120 h” value [3]?
The value was 9.80%.

And the “3) Fold change (72 h/120 h)” value [3]?
The value was 6.9.

And the Pf_120h_%Growth_Rep1 [3]?
Its Pf_120h_%Growth_Rep1 is 15.54%.

What about the Pf_120h_%Growth_Rep2 [3] of the same compound?
Its Pf_120h_%Growth_Rep2 is 4.05%.

With `O=c1cc([O-])c1=O.[Na+]` [BIA-M1269] as the compound, how does the Tg_72h_%Growth_Rep1 [1, 4] read?
The Tg_72h_%Growth_Rep1 was 105.46%.

What about the Tg_72h_%Growth_Rep2 [1, 5] of the same compound?
The Tg_72h_%Growth_Rep2 was 100.53%.

What about the Pf_72h_%Growth_Rep1 [2, 6] of the same compound?
Its Pf_72h_%Growth_Rep1 is 85.51%.

And the Pf_72h_%Growth_Rep2 [2, 7]?
The Pf_72h_%Growth_Rep2 was 86.48%.

What about the Pf_120h_%Growth_Rep1 [3, 8] of the same compound?
Its Pf_120h_%Growth_Rep1 is 98.81%.

What about the Pf_120h_%Growth_Rep2 [3, 9] of the same compound?
The Pf_120h_%Growth_Rep2 was 138.01%.

For `CCOC(=O)c1c2ccocc-2oc1=O` [BIA-K1981], which Tg_72h_%Growth_Rep1 ([1]; T. gondii RH, 72 h, library screen at 2 μg/mL, % growth, replicate 1) is on record?
The Tg_72h_%Growth_Rep1 was 89.77%.

And the Tg_72h_%Growth_Rep2 ([1]; T. gondii RH, 72 h, library screen at 2 μg/mL, % growth, replicate 2)?
Its Tg_72h_%Growth_Rep2 is 96.78%.

And the Pf_72h_%Growth_Rep1 ([2]; P. falciparum 3D7, 72 h, library screen at 2 μg/mL, % growth, replicate 1)?
Its Pf_72h_%Growth_Rep1 is 72.42%.

And the Pf_72h_%Growth_Rep2 ([2]; P. falciparum 3D7, 72 h, library screen at 2 μg/mL, % growth, replicate 2)?
Its Pf_72h_%Growth_Rep2 is 90.55%.

What about the Pf_120h_%Growth_Rep1 ([3]; P. falciparum 3D7, 120 h, library screen at 2 μg/mL, % growth, replicate 1) of the same compound?
The Pf_120h_%Growth_Rep1 was 169.06%.

What about the Pf_120h_%Growth_Rep2 ([3]; P. falciparum 3D7, 120 h, library screen at 2 μg/mL, % growth, replicate 2) of the same compound?
The Pf_120h_%Growth_Rep2 was 89.57%.

How did the Tg_72h_%Growth_Rep1 [1, 10] turn out when `C=C1CCO[C@]2([C@@H](O)[C@@](C)(O)COC(=O)c3ccccc3)NC(=O)[C@@]1(O)NC2=O` [Bicyclomycin benzoate] was run?
Its Tg_72h_%Growth_Rep1 is 81.93%.

What about the Tg_72h_%Growth_Rep2 [1, 11] of the same compound?
Its Tg_72h_%Growth_Rep2 is 95.48%.

What about the Pf_72h_%Growth_Rep1 [2, 10] of the same compound?
The Pf_72h_%Growth_Rep1 was 94.43%.

What about the Pf_72h_%Growth_Rep2 [2, 11] of the same compound?
The Pf_72h_%Growth_Rep2 was 88.43%.

And the Pf_120h_%Growth_Rep1 [3, 12]?
Its Pf_120h_%Growth_Rep1 is 148.77%.

And the Pf_120h_%Growth_Rep2 [3, 13]?
Its Pf_120h_%Growth_Rep2 is 99.84%.

With `CN[C@@H]1C[C@H]2O[C@@](C)([C@@H]1OC)n1c3ccccc3c3c4c(c5c6ccccc6n2c5c31)C(=O)NC4` [staurosporine, reference compound] as the compound, how does the “activity in the screen against T. gondii” value [1, 14] read?
Its value is “active in our screens”.

And the percent parasite growth at 2 µg/mL ([1]; 72 h, T. gondii, 72 h, parasite screen 2 μg/mL, % growth, replicate 1, read-out: Tg_72h_%Growth_Rep1)?
The percent parasite growth at 2 µg/mL was 1.08%.

What about the percent parasite growth at 2 µg/mL ([1]; 72 h, T. gondii, 72 h, parasite screen 2 μg/mL, % growth, replicate 2, read-out: Tg_72h_%Growth_Rep2) of the same compound?
Its percent parasite growth at 2 µg/mL is -0.18%.

What about the “activity in the screen against P. falciparum” value [2, 14] of the same compound?
Its value is “active in our screens”.

What about the activity at 2 µg/mL ([2]; 3D7, 72 h, P. falciparum, 72 h, parasite screen 2 μg/mL, % growth, replicate 1, read-out: Pf_72h_%Growth_Rep1) of the same compound?
The activity at 2 µg/mL was 9.8%.

What about the activity at 2 µg/mL ([2]; 3D7, 72 h, P. falciparum, 72 h, parasite screen 2 μg/mL, % growth, replicate 2, read-out: Pf_72h_%Growth_Rep2) of the same compound?
The activity at 2 µg/mL was -0.94%.

And the activity at 2 µg/mL ([3]; 3D7, 120 h, P. falciparum, 120 h, parasite screen 2 μg/mL, % growth, replicate 1, read-out: Pf_120h_%Growth_Rep1)?
The activity at 2 µg/mL was 10.8%.

And the activity at 2 µg/mL ([3]; 3D7, 120 h, P. falciparum, 120 h, parasite screen 2 μg/mL, % growth, replicate 2, read-out: Pf_120h_%Growth_Rep2)?
The activity at 2 µg/mL was 1.05%.

With Viridicatumtoxin as the compound, how does the Tg_72h_%Growth_Rep1 [1, 15] read?
Its Tg_72h_%Growth_Rep1 is 122.40%.

And the Tg_72h_%Growth_Rep2 [1, 16]?
Its Tg_72h_%Growth_Rep2 is 65.71%.

And the Pf_72h_%Growth_Rep1 [2, 17]?
The Pf_72h_%Growth_Rep1 was 2.34%.

What about the Pf_72h_%Growth_Rep2 [2, 18] of the same compound?
The Pf_72h_%Growth_Rep2 was 2.82%.

And the Pf_120h_%Growth_Rep1 [3, 19]?
The Pf_120h_%Growth_Rep1 was 6.51%.

And the Pf_120h_%Growth_Rep2 [3, 20]?
The Pf_120h_%Growth_Rep2 was 13.13%.

Which results are given for `C[C@H]1CCC[C@@H](O)CCCCCc2cc(O)cc(O)c2C(=O)O1` [Zearalanol, beta-]?
Tg_72h_%Growth_Rep1 [1, 15]: 150.26%; Tg_72h_%Growth_Rep2 [1, 16]: 92.47%; Pf_72h_%Growth_Rep1 [2, 17]: 81.97%; Pf_72h_%Growth_Rep2 [2, 18]: 86.14%; Pf_120h_%Growth_Rep1 [3, 19]: 90.97%; Pf_120h_%Growth_Rep2 [3, 20]: 85.38%

With `CO[C@H]1C[C@@H]2CC[C@@H](C)[C@@](O)(O2)C(=O)C(=O)N2CCCC[C@H]2C(=O)O[C@H]([C@H](C)C[C@@H]2CC[C@@H](OC(=O)C(C)(CO)CO)[C@H](OC)C2)CC(=O)[C@H](C)/C=C(\C)[C@@H](O)[C@@H](OC)C(=O)[C@H](C)C[C@H](C)/C=C/C=C/C=C/1C` [Temsirolimus] as the compound, how does the percent parasite growth at 2 µg/mL ([1]; 72 h, T. gondii, 72 h, screen at 2 μg/mL, replicate 1, read-out: Tg_72h_%Growth_Rep1) read?
Its percent parasite growth at 2 µg/mL is 97%.

And the percent parasite growth at 2 µg/mL ([1]; 72 h, T. gondii, 72 h, screen at 2 μg/mL, replicate 2, read-out: Tg_72h_%Growth_Rep2)?
The percent parasite growth at 2 µg/mL was 76.6%.

And the activity at 2 µg/mL ([2]; 3D7, P. falciparum, 72 h, screen at 2 μg/mL, replicate 1, read-out: Pf_72h_%Growth_Rep1)?
Its activity at 2 µg/mL is 59.1%.

And the activity at 2 µg/mL ([2]; 3D7, P. falciparum, 72 h, screen at 2 μg/mL, replicate 2, read-out: Pf_72h_%Growth_Rep2)?
The activity at 2 µg/mL was 47.4%.

What about the activity at 2 µg/mL ([3]; 3D7, P. falciparum, 120 h, screen at 2 μg/mL, replicate 1, read-out: Pf_120h_%Growth_Rep1) of the same compound?
The activity at 2 µg/mL was 61.2%.

And the activity at 2 µg/mL ([3]; 3D7, P. falciparum, 120 h, screen at 2 μg/mL, replicate 2, read-out: Pf_120h_%Growth_Rep2)?
The activity at 2 µg/mL was 46.5%.

How did the Tg_72h_%Growth_Rep1 [1, 4] turn out when `CNC1CC2OC(C)(C1OC)n1c3ccccc3c3c4c(c5c6ccccc6n2c5c31)C(=O)NC4=O` (centres unmarked) [BIA-O1137] was run?
Its Tg_72h_%Growth_Rep1 is 57.26%.

What about the Tg_72h_%Growth_Rep2 [1, 5] of the same compound?
Its Tg_72h_%Growth_Rep2 is 18.54%.

What about the Pf_72h_%Growth_Rep1 [2, 6] of the same compound?
The Pf_72h_%Growth_Rep1 was 5.55%.

What about the Pf_72h_%Growth_Rep2 [2, 7] of the same compound?
The Pf_72h_%Growth_Rep2 was 3.48%.

And the Pf_120h_%Growth_Rep1 [3, 8]?
The Pf_120h_%Growth_Rep1 was 5.90%.

And the Pf_120h_%Growth_Rep2 [3, 9]?
Its Pf_120h_%Growth_Rep2 is 15.39%.

With `CC1=CCCC(C)C(O)C(C)C(O)CCC=CC(C)C(O)C=CC(C)C(O)C(C)=CC(O[C@H]2O[C@H](CO)[C@@H](O)[C@H](O)[C@@H]2O)C(O)CC(O)CC(O)CC(O)C(C)C(O)C(C)C(O)CC(O)CC(O)C=CCC(C(C)C(O)CCCN)OC1=O` (some centres unmarked) [Desertomycin A] as the compound, how does the Tg_72h_%Growth_Rep1 [1, 10] read?
The Tg_72h_%Growth_Rep1 was 97.84%.

What about the Tg_72h_%Growth_Rep2 [1, 11] of the same compound?
The Tg_72h_%Growth_Rep2 was 106.51%.

What about the Pf_72h_%Growth_Rep1 [2, 10] of the same compound?
The Pf_72h_%Growth_Rep1 was 84.25%.

What about the Pf_72h_%Growth_Rep2 [2, 11] of the same compound?
The Pf_72h_%Growth_Rep2 was 90.28%.

What about the Pf_120h_%Growth_Rep1 [3, 12] of the same compound?
The Pf_120h_%Growth_Rep1 was 93.27%.

And the Pf_120h_%Growth_Rep2 [3, 13]?
Its Pf_120h_%Growth_Rep2 is 101.55%.
